The target of test [1] is T1, Caspase 7 (Homo sapiens, UniProt P55210).
T1 construct: purchased Enzo Biosciences
T1 sequence (P55210 24-198 limits assumed): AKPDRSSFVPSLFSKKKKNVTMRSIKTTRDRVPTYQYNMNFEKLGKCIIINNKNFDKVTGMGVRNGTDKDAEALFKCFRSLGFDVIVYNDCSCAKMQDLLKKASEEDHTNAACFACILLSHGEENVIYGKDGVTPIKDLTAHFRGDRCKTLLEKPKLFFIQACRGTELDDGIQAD
T1 sequence (P55210 207-303 limits assumed): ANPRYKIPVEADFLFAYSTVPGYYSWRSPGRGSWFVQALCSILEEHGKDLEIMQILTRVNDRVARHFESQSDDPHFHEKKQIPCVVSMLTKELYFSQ
Description: Caspase 7 enzymatic inhibition assay, IC50. Type of test: biochemical. To be noted: read-out: Caspase 7 enzyme inhibition IC50. As to the method:
(§1) Human caspases were purchased from Enzo Biosciences and used according to the manufacturer's instructions. An exemplary caspase assay, for Caspase-1, is provided below:
(§2) Enzymatic assays were conducted for Caspase-3, 6 and 7 activity according to the manufacture's instructions.

Test [2] concerns the target T2, Caspase-1 (Homo sapiens, UniProt P29466).
T2 construct: purchased Enzo Biosciences
T2 sequence (P29466 120-297 limits assumed): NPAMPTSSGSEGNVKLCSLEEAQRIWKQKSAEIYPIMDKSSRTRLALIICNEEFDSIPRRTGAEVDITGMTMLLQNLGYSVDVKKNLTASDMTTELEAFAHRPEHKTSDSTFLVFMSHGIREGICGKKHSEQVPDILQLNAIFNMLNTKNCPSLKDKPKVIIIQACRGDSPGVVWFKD
T2 sequence (P29466 317-404 limits assumed): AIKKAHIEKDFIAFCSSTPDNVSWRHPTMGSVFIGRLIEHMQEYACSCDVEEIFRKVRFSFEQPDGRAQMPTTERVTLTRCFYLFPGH
Description: Caspase-1 enzyme inhibition assay (Ac-YVAD-pNA substrate), IC50. Type of test: biochemical. How it is done: as §1
Caspase-1 was diluted to 10 U/μl in assay buffer consisting of 50 mM HEPES, pH 7.4, 100 mM NaCl, 0.1% CHAPS, 1 mM EDTA, 10% glycerol and 10 mM DTT.
45 μl of assay buffer was added into ½ volume microtiter plate. The plate was allowed to equilibrate to assay temperature. 5 μl of Caspase-1 (10 U/μl) was added to each appropriate well. Two 2 blank wells containing assay buffer alone without Caspase-1 were included on the plate.
The reaction was started by the addition of 50 μl Ac-YVAD-pNA substrate, for a final substrate concentration of 200 μM. The reaction was continuously monitored at 405 nm. The data was graphed as OD405 nm vs time, and the slope was determined over the linear portion of the curve. The rates in OD/min were converted to substrate/min using an extinction coefficient for p-nitroaniline of 10,500M-1 cm-1, and were adjusted for pathlength of sample. […]

In test [3] the target is T3, Caspase-3 (Homo sapiens, UniProt P42574).
T3 construct: purchased Enzo Biosciences
T3 sequence (P42574 29-175 limits assumed): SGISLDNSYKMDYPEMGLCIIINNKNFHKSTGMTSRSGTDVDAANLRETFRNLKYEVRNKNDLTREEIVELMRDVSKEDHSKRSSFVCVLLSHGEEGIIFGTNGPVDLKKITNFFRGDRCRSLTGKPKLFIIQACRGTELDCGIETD
T3 sequence (P42574 176-277 limits assumed): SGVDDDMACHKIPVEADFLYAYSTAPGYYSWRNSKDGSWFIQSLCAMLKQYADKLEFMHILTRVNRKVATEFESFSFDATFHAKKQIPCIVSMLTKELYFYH
Nature of the test: Caspase-3 enzymatic inhibition assay, IC50. Type of test: biochemical. The settings on record: read-out: Caspase 3 enzyme inhibition IC50. How it is done:
as §1, §2

The target of test [4] is T4, Caspase 6 (Homo sapiens, UniProt P55212).
T4 construct: purchased Enzo Biosciences
T4 sequence (P55212 24-179 limits assumed): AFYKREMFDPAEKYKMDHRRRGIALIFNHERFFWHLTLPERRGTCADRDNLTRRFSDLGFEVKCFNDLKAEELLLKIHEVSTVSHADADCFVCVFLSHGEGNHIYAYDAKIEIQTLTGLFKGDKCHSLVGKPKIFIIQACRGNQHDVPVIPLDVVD
T4 sequence (P55212 194-293 limits assumed): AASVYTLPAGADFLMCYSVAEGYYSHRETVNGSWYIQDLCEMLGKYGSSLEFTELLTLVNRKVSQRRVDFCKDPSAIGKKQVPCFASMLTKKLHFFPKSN
Description: Caspase 6 enzymatic inhibition assay, IC50. To be noted: read-out: Caspase 6 enzyme inhibition IC50. Type of test: biochemical. As to the method:
as §1, §2

Test [5] is described as follows: Rodent model of ulcerative colitis induced by TNBS. Type of test: in vivo, Sprague-Dawley rats. As to the method: Compounds of the present invention were tested by oral administration in a rodent model of ulcerative colitis (UC). Ulcerative colitis was induced in Sprague-Dawley rats by instillation of 48 mg/kg […], (TNBS), through the rectum. Testing included 4 active treatment groups and one vehicle control group.
Effect of TNBS-Induced UC in Vehicle Treated Control Group, (Group 1):
Rats were administered of 0.5% vehicle carboxy methylcellulose, (CMC), twice daily starting 24 hours after the instillation of TNBS.
At the termination of the study on DAY 7, the average colon weight in the diseased rats was 5.904±2.208 g, the average colon length was 11.0±1.4 cm and the average distal colon width was 3.1±1.0 cm. Severe adhesions involving multiple intestinal loops, severe stricture resulting in proximal colon distension, ulcers of 6.4±0.4 cm in length, and colonic wall thickness of 3.5±0.8 mm combined to yield an overall colonic score of 11.5±0.8 in the diseased rats. […] Subacute inflammation (sub/mucosal and transmural/serosal were graded separately) was characterized by infiltration and aggregation of neutrophils, eosinophils, lymphocytes, plasma cells, and macrophages. Mucosal necrosis was characterized by damage to, necrosis of, or complete loss of colonic glands. Erosions were characterized by coagulative necrosis or loss of surface epithelium superficial to the muscularis mucosae. Submucosal edema was characterized by expansion of the submucosa by clear space or pale eosinophilic fluid, variably accompanied by dilation of lymphatic vessels and similar edematous expansion of the lamina propria. Epithelial hyperplasia was characterized by elongation of colonic glands and increased numbers of epithelial mitotic figures.

Setting [6] is: 10 mg/kg once daily oral, starting 24 hours after TNBS.
Where [7] appears, read: Group 2, prednisolone 10 mg/kg once daily oral, DAY 7.

This note sets out measurements from US11597703B2, “Caspase inhibitors and methods of use thereof” (Histogen Inc., priority 2019, dated 2023).

By IC50 is commonly meant the concentration that gives 50% inhibition.

The structures appear in SMILES notation.

With `Cc1ccccc1NC(=O)C(=O)N[C@@H](C)C(=O)N[C@@H](CCC(=O)O)C(=O)COc1c(F)c(F)cc(F)c1F` [Example 21, (S)-4-((S)-2-(2-((2-methylphenyl)amino)-2-oxoacetamido)propanamido)-5-oxo-6-(2,3,5,6-tetrafluorophenoxy)hexanoic acid], the IC50 was not below 1000 nM in test [1], not above 10 nM in test [2], not below 1000 nM in test [3] and not below 1000 nM in test [4].
Regarding `COc1ccccc1NC(=O)C(=O)N[C@@H](C)C(=O)N[C@@H](CCC(=O)O)C(=O)COc1c(F)c(F)cc(F)c1F` [Example 22, (S)-4-((S)-2-(2-((2-methyoxyphenyl)amino)-2-oxoacetamido)propanamido)-5-oxo-6-(2,3,5,6-tetrafluorophenoxy)hexanoic acid], the IC50 was not below 1000 nM in test [1], not above 10 nM in test [2], not below 1000 nM in test [3] and not below 1000 nM in test [4].
Turning to `COc1cccc(NC(=O)C(=O)N[C@@H](C)C(=O)N[C@@H](CCC(=O)O)C(=O)COc2c(F)c(F)cc(F)c2F)c1` [Example 23, (S)-4-((S)-2-(2-((3-methyoxyphenyl)amino)-2-oxoacetamido)propanamido)-5-oxo-6-(2,3,5,6-tetrafluorophenoxy)hexanoic acid], the IC50 is not below 1000 nM in test [1], not above 10 nM in test [2], not below 1000 nM in test [3] and not below 1000 nM in test [4].
Consider `COc1ccc(NC(=O)C(=O)N[C@@H](C)C(=O)N[C@@H](CCC(=O)O)C(=O)COc2c(F)c(F)cc(F)c2F)cc1` [Example 24, (S)-4-((S)-2-(2-((4-methyoxyphenyl)amino)-2-oxoacetamido)propanamido)-5-oxo-6-(2,3,5,6-tetrafluorophenoxy)hexanoic acid], for which the IC50 in test [1] was not below 1000 nM; in test [2], not above 10 nM; in test [3] it was not below 1000 nM; in test [4] it was not below 1000 nM.
In the case of `Cc1ccc(NC(=O)C(=O)N[C@@H](C)C(=O)N[C@@H](CCC(=O)O)C(=O)COc2c(F)c(F)cc(F)c2F)nc1` [Example 25], the IC50 in test [1] was not below 1000 nM; in test [2], not above 10 nM; in test [3], not below 1000 nM; in test [4], not below 1000 nM.
On to `C[C@H](NC(=O)C(=O)Nc1cccc(C(F)(F)F)c1)C(=O)N[C@@H](CCC(=O)O)C(=O)COc1c(F)c(F)cc(F)c1F` [Example 26, (S)-5-oxo-4-((S)-2-(2-oxo-2-((3-(trifluoromethyl)phenyl)amino)acetamido)propanamido)-6-(2,3,5,6-tetrafluorophenoxy) hexanoic acid], for which the IC50 was not below 1000 nM in test [1], not above 10 nM in test [2], not below 1000 nM in test [3] and not below 1000 nM in test [4].
Regarding `C[C@H](NC(=O)C(=O)Nc1ccc(C(F)(F)F)cc1)C(=O)N[C@@H](CCC(=O)O)C(=O)COc1c(F)c(F)cc(F)c1F` [Example 27, (S)-5-oxo-4-((S)-2-(2-oxo-2-((4-(trifluoromethyl)phenyl)amino)acetamido)propanamido)-6-(2,3,5,6-tetrafluorophenoxy) hexanoic acid], the IC50 in test [1] is not below 1000 nM; in test [2], not above 10 nM; in test [3], not below 1000 nM; in test [4], not below 1000 nM.
`C[C@H](NC(=O)C(=O)Nc1c(F)cccc1F)C(=O)N[C@@H](CCC(=O)OCc1ccccc1)C(=O)COc1c(F)c(F)cc(F)c1F` [Example 28, benzyl(S)-4-((S)-2-(2-((2,6-difluorophenyl)amino)-2-oxoacetamido)propanamido)-5-oxo-6-(2,3,5,6-tetrafluorophenoxy)hexanoate]: the IC50 in test [1] is not below 1000 nM; in test [2] it was not above 10 nM; in test [3] it was not below 1000 nM; in test [4] it was not below 1000 nM.
For the compound `C[C@H](NC(=O)C(=O)Nc1ccc(Cl)cn1)C(=O)N[C@@H](CCC(=O)O)C(=O)COc1c(F)c(F)cc(F)c1F` [Example 29, (S)-4-((S)-2-(2-((5-chloropyridin-2-yl)amino)-2-oxoacetamido)propanamido)-5-oxo-6-(2,3,5,6-tetrafluorophenoxy)hexanoic acid], the IC50 was not below 1000 nM in test [1], not above 10 nM in test [2], not below 1000 nM in test [3] and not below 1000 nM in test [4].
For `CC(=O)c1ccc(NC(=O)C(=O)N[C@@H](C)C(=O)N[C@@H](CCC(=O)O)C(=O)COc2c(F)c(F)cc(F)c2F)cc1` [Example 30, (S)-4-((S)-2-(2-((4-acetylphenyl)amino)-2-oxoacetamido)propanamido)-5-oxo-6-(2,3,5,6-tetrafluorophenoxy)hexanoic acid], the IC50 is not below 1000 nM in test [1], not above 10 nM in test [2], not below 1000 nM in test [3] and not below 1000 nM in test [4].
`C[C@]12C=CC(=O)C=C1CC[C@@H]1[C@@H]2[C@@H](O)C[C@@]2(C)[C@H]1CC[C@]2(O)C(=O)CO` [Prednisolone, reference compound]: in test [5] (setting [6]), the “all measured colon parameters” value is listed as “significantly improved”, the “animal health as reflected by body weight” value is listed as “improved animal health by DAY 4”, the “average inhibition of the histological parameters” value was found to be 40% and the “reduction in the overall colonic score” value is 67%. In test [5] (setting [7]), the “colon histology: Edema, Submucosal, Mean” value came out at 2.3; the “colon histology: Erosion/ Ulceration, Mean” value was found to be 2.9; the “colon histology: Hyperplasia, Epithelial, Mean” value is 2.9; the “colon histology: Necrosis, Mucosal/ Gland Loss, Mean” value is 2.9. In addition, in test [5] (setting [7]), the “colon histology: SUM Score, Mean” value is recorded as 16.3; the “colon histology: Subacute Inflammation, Mucosal/ Submucosal, Mean” value was 3.5; the “colon histology: Subacute Inflammation, Transmural/ Serosal, Mean” value was 2.8. Also, in test [5] (Group 2, prednisolone 10 mg/kg once daily oral, study day 0), the average animal weight, Mean amounted to 235 g. The average animal weight, Mean in test [5] (Group 2, prednisolone 10 mg/kg once daily oral, study day 1) worked out at 232 g. In test [5] (Group 2, prednisolone 10 mg/kg once daily oral, study day 2), this compound showed an average animal weight, Mean of 221 g. Besides, in test [5] (Group 2, prednisolone 10 mg/kg once daily oral, study day 3), the average animal weight, Mean is 223 g. Moreover, the average animal weight, Mean in test [5] (Group 2, prednisolone 10 mg/kg once daily oral, study day 4) is 223 g. Moreover, the average animal weight, Mean in test [5] (Group 2, prednisolone 10 mg/kg once daily oral, study day 5) is 227 g. Also, the average animal weight, Mean in test [5] (Group 2, prednisolone 10 mg/kg once daily oral, study day 6) was found to be 227 g. This compound also came in with an average animal weight, Mean in test [5] (Group 2, prednisolone 10 mg/kg once daily oral, study day 7) of 229 g. Further, the average animal weight, Mean in test [5] (Group 2, prednisolone 10 mg/kg once daily oral, study day −1) was found to be 249 g. Further, the average animal weight, Mean in test [5] (Group 2, prednisolone 10 mg/kg once daily oral, study day −5) came to 222 g.
